For orientation: EC50 means the concentration that produces a half-maximal response.

Molecules are shown by their SMILES. Values after ≈ are worked out from the molar mass of the structure shown.

The record followed here is patent publication US20240270762A1, “PENICILLIN-BINDING PROTEIN INHIBITORS” (priority 2021, published 2024).

One assay has as its system K. pneumoniae UMM. Briefly: microbe, parasite or virus in culture. Conditions: Klebsiella pneumoniae, read-out: MIC K. pneumoniae UMM. It counts as cell-based.
The test system of a further assay is A. baumannii ATCC 19606. Kind of assay: microbe, parasite or virus in culture. It is filed as cell-based. Conditions: Acinetobacter baumannii, ATCC19606, read-out: MIC, A. baumannii ATCC 19606.
The next assay deals with E. coli AG100. Briefly: microbe, parasite or virus in culture. It counts as cell-based. Conditions: Escherichia coli, AG100, read-out: MIC E. coli AG100.
In assay [1] the test system is P. aeruginosa (ΔmexAB-oprM). Kind of assay: Broth microdilution MIC in CAMHB. It counts as cell-based. Conditions: Pseudomonas aeruginosa; read-out: MIC P. aeruginosa ΔmexAB-oprM. On the technique in general: Dilution methods test growth across graded concentrations, often in twofold steps.
The test system of the next assay is E. coli AG100A. Kind of assay: Broth microdilution MIC in CAMHB. It is filed as cell-based. Conditions: Escherichia coli, read-out: MIC E. coli AG100A.
Another assay relates to E. coli 901C. Kind of assay: microbe, parasite or virus in culture. It counts as cell-based. The following applies: Escherichia coli, read-out: MIC E. coli 901C.
Assay [2] deals with T1, PBP3 from Escherichia coli (K-12) (Escherichia coli, UniProt P0AD68).
T1 construct: made in house
Kind of assay: Bocillin-FL fluorescence polarization competition binding, E. coli PBP3. The source says: (§1) To determine the ability of boronic acid-based test PBP inhibitors to bind Penicillin Binding Proteins (PBPs), Bocillin-FL (fluorescently-labeled penicillin V; ThermoFisher Scientific) was used in a fluorescence polarization (FP) competition binding assay to assess inhibitor binding to PBP3 from Escherichia coli (K-12), PBP3 from Pseudomonas aeruginosa (PAO1), PBP1a and PBP3 from Acinetobacter baumannii (ATCC 19606), and PBP2 from Neisseria gonorrhoeae (FA19). PBPs were cloned and purified as described previously (E. coli PBP3, King, D. T, et al., ACS Infectious Diseases 2015, 1, 175-184; P. aeruginosa PBP3, Han et. al., PNAS 2010, 107 (51), 22002-22007; A. baumannii PBPs, Penwell et. al., Antimicrob. Agents Chemother. 2015, 59 (3), 1680-1689; N. gonorrhoeae PBP2, Singh et. al., J. Biol. Chem. 2019, 294 (38), 14020-14032). To establish assay conditions for competition binding, enzyme titration/saturation binding experiments were initially performed. Bocillin-FL was prepared at 0.2 μM in a buffer comprised of 50 mM Hepes (pH 8.0), 300 mM NaCl and 10% (v/v) glycerol for reactions with E. coli, P. aeruginosa and N. gonorrhoeae PBPs, and 25 mM Tris (pH 8.0), 200 mM NaCl, 10% (v/v) glycerol and 0.005% (v/v) Tween 20 for reactions with A. baumannii PBPs. Saturation binding was performed by mixing 40 μl of PBP solutions ranging in concentrations from 0-24 μM with 40 μl of the 0.2 μM Bocillin-FL solution, in individual wells of a black 384-well microplate. FP was measured immediately upon mixing (Excitation, 490 nm; Emission, 520 nm; g-factor, 0.96), using a Cytation3 (BioTek) microplate reader and measured continuously for up to 120 minutes. The FP response stabilized after 15 minutes for P. aeruginosa and A. baumannii PBP3, 30 minutes for E. coli PBP3 and A. baumannii PBP1a, and less than 1 minute for N. gonorrhoeae PBP2. […] The competition binding assay (80 μl final volume) was validated using beta-lactams and PBPs at final concentrations of: 1.5 μM for E. coli PBP3; 0.75 μM for P. aeruginosa PBP3; 1 μM for A. baumannii PBP1a; 0.2 μM for A. baumannii PBP3; and 0.25 μM for N. gonorrhoeae PBP2. Bocillin-FL was at 0.1 μM (0.05 μM with A. baumannii PBP1a) and beta-lactam concentrations ranged from 0-1,000 μM. E. coli PBP3 was incubated with increasing concentrations of ampicillin in a black 384-well microplate (Corning) for 30 minutes. P. aeruginosa PBP3 was incubated for 15 minutes with aztreonam, whereas A. baumannii PBP1a and PBP3 were incubated for 15 minutes with meropenem, and then Bocillin-FL was added followed immediately by the FP measurement for up to 60 minutes. […] The beta-lactam potency was reported as the concentration of beta-lactam required to reduce the amount of PBP bound-Bocillin-FL by 50% (EC50). […] The EC50 of aztreonam was determined to be <0.5 μM for P. aeruginosa PBP3. […] Binding assays for boronic acid PBP inhibitors were performed in an identical fashion for the respective PBPs.
A general note: Polarisation of emitted light reports the rotation of a fluorescent probe.

Another assay deals with K. pneumoniae SI-117. Briefly: microbe, parasite or virus in culture. Conditions: Klebsiella pneumoniae, SI117, read-out: MIC K. pneumoniae SI-117. It is filed as cell-based.
The next assay deals with P. aeruginosa ATCC 27853. Kind of assay: microbe, parasite or virus in culture. It counts as cell-based. The following applies: Pseudomonas aeruginosa, ATCC27853, read-out: MIC P. aeruginosa ATCC 27853.
Assay [3] addresses T2, PBP3 from Pseudomonas aeruginosa (PAO1) (Pseudomonas aeruginosa, UniProt G3XD46).
T2 construct: made in house
Kind of assay: Bocillin-FL fluorescence polarization competition binding, P. aeruginosa PBP3. The following applies: Binding affinity to P. aeruginosa PBP3; fluorescence polarization competition binding assay using Bocillin-FL; read-out: P. aeruginosa PBP3 Potency.
Excerpt: as §1

A further assay relates to K. pneumoniae 848844. Kind of assay: microbe, parasite or virus in culture. It counts as cell-based. The following applies: Klebsiella pneumoniae, 848844, read-out: MIC K. pneumoniae 848844.
The next assay has as its system E. coli D22. Briefly: microbe, parasite or virus in culture. It is filed as cell-based. Conditions: Escherichia coli, D22, read-out: MIC E. coli D22.
A further assay has as its system P. aeruginosa ATCC 35151. Briefly: microbe, parasite or virus in culture. It is filed as cell-based. The following applies: Pseudomonas aeruginosa, ATCC35151, read-out: MIC P. aeruginosa ATCC 35151.
The next assay relates to E. coli ATCC 25922. Kind of assay: microbe, parasite or virus in culture. It counts as cell-based. Conditions: Escherichia coli, ATCC25922, read-out: MIC E. coli 25922.
The subject of another assay is N. gonorrhoeae WHO Z. Briefly: Liquid broth MIC in Fastidious broth. The following applies: Neisseria gonorrhoeae, read-out: Minimum Inhibitory Concentration, WHO Z.
Assay [4] deals with N. gonorrhoeae ATCC 49226. Briefly: Liquid broth MIC in Fastidious broth. The following applies: Neisseria gonorrhoeae, ATCC49226, read-out: Minimum Inhibitory Concentration, ATCC 49226.
The next assay deals with N. gonorrhoeae FA1090. Kind of assay: Liquid broth MIC in Fastidious broth. The following applies: Neisseria gonorrhoeae, FA1090, read-out: Minimum Inhibitory Concentration, FA 1090.

T1 sequence (P0AD68 1-577): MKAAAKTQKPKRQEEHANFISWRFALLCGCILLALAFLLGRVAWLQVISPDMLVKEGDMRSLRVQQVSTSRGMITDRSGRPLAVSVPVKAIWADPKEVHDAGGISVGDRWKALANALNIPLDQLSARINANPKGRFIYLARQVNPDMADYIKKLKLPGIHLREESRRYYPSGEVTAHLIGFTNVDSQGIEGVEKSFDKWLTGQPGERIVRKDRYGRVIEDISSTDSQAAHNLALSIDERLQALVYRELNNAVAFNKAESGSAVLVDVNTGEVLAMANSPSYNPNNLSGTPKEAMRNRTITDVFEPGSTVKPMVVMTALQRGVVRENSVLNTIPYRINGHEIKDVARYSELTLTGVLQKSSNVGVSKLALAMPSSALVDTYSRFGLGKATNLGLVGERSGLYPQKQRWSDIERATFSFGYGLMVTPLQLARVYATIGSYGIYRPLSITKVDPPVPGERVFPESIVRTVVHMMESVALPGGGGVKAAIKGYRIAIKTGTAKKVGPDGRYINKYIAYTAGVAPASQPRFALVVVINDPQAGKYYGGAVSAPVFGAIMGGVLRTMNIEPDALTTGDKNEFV
T2 sequence (G3XD46 whole entry): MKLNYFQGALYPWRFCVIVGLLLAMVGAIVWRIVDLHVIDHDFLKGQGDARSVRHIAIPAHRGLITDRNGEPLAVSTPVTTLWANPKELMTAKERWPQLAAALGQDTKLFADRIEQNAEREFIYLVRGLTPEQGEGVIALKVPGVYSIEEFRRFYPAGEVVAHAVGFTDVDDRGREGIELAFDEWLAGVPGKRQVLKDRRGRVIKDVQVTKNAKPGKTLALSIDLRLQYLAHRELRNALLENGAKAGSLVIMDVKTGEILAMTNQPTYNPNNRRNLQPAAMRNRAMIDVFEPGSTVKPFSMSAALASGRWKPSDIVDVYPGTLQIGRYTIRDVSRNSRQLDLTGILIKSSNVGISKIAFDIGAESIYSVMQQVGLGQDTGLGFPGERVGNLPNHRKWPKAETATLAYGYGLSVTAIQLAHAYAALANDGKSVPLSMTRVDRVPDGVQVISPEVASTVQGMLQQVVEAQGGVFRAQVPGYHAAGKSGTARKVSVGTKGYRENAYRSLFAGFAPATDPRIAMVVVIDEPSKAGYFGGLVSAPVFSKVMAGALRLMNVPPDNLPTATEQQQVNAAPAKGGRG

Consider `O=C(N[C@H](C(=O)N[C@H]1Cc2cccc(C(=O)O)c2OB1O)c1ccc(P(=O)(O)O)cc1)c1cnc2ccnn2c1` (single isomer, unassigned) [Example 186], for which the MIC in the assay on K. pneumoniae UMM is over 128 µg/mL; in the assay on A. baumannii ATCC 19606, over 128 µg/mL; with E. coli AG100, over 128 µg/mL; in assay [1], over 128 µg/mL; with E. coli AG100A, over 128 µg/mL; with E. coli 901C, 8 to 16 µg/mL (≈ 14.2 to 28.3 µM). The MIC was over 128 µg/mL in the assay on K. pneumoniae SI-117; over 128 µg/mL in the assay with P. aeruginosa ATCC 27853; over 128 µg/mL in the assay on K. pneumoniae 848844; over 128 µg/mL with E. coli D22; 2 to 4 µg/mL (≈ 3.54 to 7.08 µM) in the assay on P. aeruginosa ATCC 35151; over 128 µg/mL in the assay with E. coli ATCC 25922. The compound further showed an EC50 in assay [2] of over 250 µM. In [3], the IC50 fell in the range of 10 to 50 µM.

`O=C(N[C@@H](C(=O)N[C@H]1Cc2cccc(C(=O)O)c2OB1O)c1ccc(P(=O)(O)O)cc1)c1cnc2ccnn2c1` (single isomer, unassigned) [Example 187]: the MIC in the assay with K. pneumoniae UMM is over 128 µg/mL; in the assay on A. baumannii ATCC 19606, over 128 µg/mL; in the assay with E. coli AG100 it was over 128 µg/mL; in assay [1], 32 to 64 µg/mL (≈ 56.6 to 113 µM); in the assay on E. coli AG100A it was over 128 µg/mL; in the assay with E. coli 901C it was 8 to 16 µg/mL (≈ 14.2 to 28.3 µM). The MIC was over 128 µg/mL in the assay on K. pneumoniae SI-117; over 128 µg/mL in the assay with P. aeruginosa ATCC 27853; over 128 µg/mL in the assay with K. pneumoniae 848844; 32 to 64 µg/mL (≈ 56.6 to 113 µM) with E. coli D22; 2 to 4 µg/mL (≈ 3.54 to 7.08 µM) in the assay on P. aeruginosa ATCC 35151; over 128 µg/mL in the assay with E. coli ATCC 25922. The half-maximal effective concentration (EC50) in assay [2] fell in the range of 10 to 50 µM. Also, in [3], the IC50 is under 10 µM.

`O=C(N[C@@H](C(=O)N[C@H]1Cc2cccc(C(=O)O)c2OB1O)c1ccc(P(=O)(O)O)cc1)c1cnc2cccn2c1` (single isomer, unassigned) [Example 499]: the MIC in the assay on K. pneumoniae UMM was over 128 µg/mL; with A. baumannii ATCC 19606, over 128 µg/mL; in the assay with E. coli AG100 it was over 128 µg/mL; in assay [1] it was 32 to 64 µg/mL (≈ 56.7 to 113 µM); in the assay on E. coli AG100A, 32 to 64 µg/mL (≈ 56.7 to 113 µM); with E. coli 901C it was 2 to 4 µg/mL (≈ 3.54 to 7.09 µM). The MIC with K. pneumoniae SI-117 is over 128 µg/mL; in the assay on P. aeruginosa ATCC 27853 it was over 128 µg/mL; in the assay with K. pneumoniae 848844, over 128 µg/mL; in the assay on E. coli D22, 32 to 64 µg/mL (≈ 56.7 to 113 µM); in the assay on P. aeruginosa ATCC 35151, 2 to 4 µg/mL (≈ 3.54 to 7.09 µM); in the assay on E. coli ATCC 25922, over 128 µg/mL. For the same compound, in [2], the EC50 was in the range of 10 to 50 µM. In [3], the IC50 was under 10 µM.

For `O=C(NC(C(=O)N[C@H]1Cc2cccc(C(=O)O)c2OB1O)c1ccc(P(=O)(O)O)cc1)c1ccc2ccnn2c1` (stereo partly drawn) [Example 498, (3R)-2-hydroxy-3-(2-(4-phosphonophenyl)-2-(pyrazolo[1,5-a]pyridine-6-carboxamido)acetamido)-3,4-dihydro-2H-benzo[e][1,2]oxaborinine-8-carboxylic acid], the MIC with K. pneumoniae UMM was over 128 µg/mL; in the assay on A. baumannii ATCC 19606, over 128 µg/mL; in the assay on E. coli AG100, over 128 µg/mL; in assay [1], over 128 µg/mL; with N. gonorrhoeae WHO Z, over 64 µg/mL; in the assay on E. coli AG100A, over 128 µg/mL. The MIC is 32 to 64 µg/mL (≈ 56.7 to 113 µM) in the assay with E. coli 901C; over 128 µg/mL in the assay with K. pneumoniae SI-117; over 128 µg/mL with P. aeruginosa ATCC 27853; over 128 µg/mL in the assay on K. pneumoniae 848844; over 128 µg/mL with E. coli D22; 8 to 16 µg/mL (≈ 14.2 to 28.4 µM) in the assay with P. aeruginosa ATCC 35151. For the same compound, the MIC was over 128 µg/mL in the assay with E. coli ATCC 25922, over 64 µg/mL in assay [4] and 4 to 8 µg/mL (≈ 7.09 to 14.2 µM) with N. gonorrhoeae FA1090. The compound also registered an EC50 in assay [2] of 50 to 250 µM. In assay [3], the IC50 fell in the range of 10 to 50 µM.
